Results reported in patent US20240018470A1, “METHOD OF MANIPULATING PLURIPOTENCY IN CELLS” (YALE UNIVERSITY, priority 2022, published 2024).

How the values were obtained:
Assay type in all cases: in vivo, Xenopus tropicalis
Xenopus embryos [1] = test: Organ situs (left-right patterning) scoring in stage 45 tadpoles; conditions: for abnormal organ situs: kcnh6 depletion, injected at one-cell stage
Protocol: Stage 45 Xenopus embryos were paralyzed with benzocaine or tricaine and scored with a light stereomicroscope. Cardiac looping was determined by position of the outflow tract; D-loop: rightward, L-loop: leftward; A-loop: midline. Normal intestinal looping was scored as counter-clockwise rotation of the gut, while abnormal intestinal looping was scored as completely inverse gut rotation (clockwise) or complete lack of looping (un-looped). While a completely inverted gut rotation is clearly an abnormality of LR patterning, an unlooped gut is less clear so the present study only considered an unlooped gut as abnormal situs when combined with abnormal placement (left-sided or midline) of the gall bladder. To quantify total abnormal organ situs, each tadpole was counted only once, regardless of whether multiple organs were affected.
(§1) Normal embryonic medium is 1/9× modified Ringer's (MR) containing 11 mM NaCl, 0.2 mM KCl, 0.2 mM CaCl2), 0.1 mM Mg2Cl and 0.55 mM HEPES. To allow Ergtoxin to penetrate the embryos, the present study manually removed the vitelline envelope of stage 8 embryos and incubated embryos in 1/9×MR containing 50 nM Ergtoxin (Alomone STE-450) until stage 12. Embryos were then transferred back into 1/9×MR lacking Ergtoxin to develop until stage 45 in order to score organ situs. Barium chloride was applied into the medium at 20 mM and embryos were thoroughly rinsed in 1/9×MR after each incubation period for further development in Ba2+-free medium. For extracellular K^+ manipulations, the KCl concentration in 1/9×MR was modified from 0.2 mM (normal) to 20 mM (high) or 0 mM (low). The ionophore valinomycin (ACROS) and L-type VGCC blocker Nifedipine (ACROS) were diluted in DMSO as stock solutions and applied to embryos in 1/9×MR at 2 nM and 10 μM respectively. Treatments performed during gastrulation were applied from stage 8 through stage 12, and embryos were then rinsed thoroughly and returned into 1/9×MR. For rapamycin, the present study created a standard stock solution of 50 mg/ml in DMSO. The stock solution was diluted 1:2500 in the appropriate embryonic media (final 20 μg/ml). Embryos were treated at stage 7 and then fixed at stage 11 for in situ hybridization.
(§2) In experiments where embryos were evaluated for phenotypes and scored (gastrulation, left-right patterning, in situ hybridizations) the present study carried out three to five biological replicates and Fisher's exact test to evaluate statistical significance. The animal cap experiment was performed twice with a total score of four to eight animal caps per experiment. For the calcium transient analyses, data was collected from three to five embryos in each experiment in three independent experiments, and statistical analyses on GCaMP/mCherry fluorescence intensity as well as Ca^2+ transient area were performed using student's t-test. For whole cell electrophysiological recordings, three to five embryos (two cells each) were examined for their membrane potential and statistical significance was tested by student's t-test. Graphs were designed using GraphPad Prism software. Models were created with BioRender.com.

Xenopus embryos [2] = test: Gastrulation scoring (incomplete blastopore closure) in treated or kcnh6-depleted embryos; conditions: for inability to complete gastrulation: kcnh6 depletion, injected at one-cell stage
Protocol: All injections of Xenopus embryos were performed at the one-cell stage using a fine glass needle and Picospritzer system. A kcnh6 translation blocking (kcnh6 MO, 5′-[…]-3′, SEQ ID NO:1) and a scrambled morpholino oligonucleotide were obtained from Gene Tools LLC and injected at 10 ng to deplete kcnh6 or as a control, respectively. CRISPR sgRNAs for kcnh6 targeted either exon 3 or exon 4 based on the v7.1 gene model of the X. tropicalis genome (CRex3: 5′-[…]-3′, SEQ ID NO:2 and CRex4: 5′-[…]-3′, SEQ ID NO:3). CRISPR sgRNAs for cacna1c (5′-[…]-3′, SEQ ID NO:4) and cacna1g (5′-[…]-3′, SEQ ID NO:5) were designed from the v7.1 model of the Xenopus tropicalis genome. For F0 CRISPR knockdown, embryos were injected with 1.5 ng Cas9 Protein (PNA-Bio) and 400 pg of targeting sgRNA and raised to desired stages. […] Full length human KCNH6 (NM 030779.3; cloned in pCS107), GCaMP6 (subcloned in pCSDest) and mCherry cDNAs (Addgene #34935; in pCS2+), were used to generate capped mRNAs in vitro by first linearizing with appropriate restriction enzymes and then transcribing with the mMessage machine kit (Ambion). mRNAs were injected at 3 pg (human KCNH6), 150 pg (GCaMP6) and 150 pg (mCherry) per embryo. Embryos were raised at 21° C. to allow time for sufficient expression levels at blastula/gastrula stages.
as §1, §2

Xenopus embryos [3] = test: Whole mount in situ hybridization for germ layer and pluripotency markers; conditions: for expression of ectodermin and myf5 on co-depletion in kcnh6 depleted embryos: CRISPR co-depletion
Text: In order to generate a full-length antisense probe for X. tropicalis kcnh6, kcnh6 cDNA was cloned from stage 45 tadpole whole mRNA using primers […] ID NO:10) and […] ID NO:11) (XM_012952904.1). It was noted that kcnh6 had been misannotated as kcnh2 in the v7.1 model of the X. tropicalis genome (The present study used NCBI Annotation XP_012808358.2 to identify KCNH6). […] GRPs were dissected post fixation and prior to dehydration to detect dandy. To detect putative gene expression in the prospective endoderm (mixer, vegT, kcnh6) gastrula stage embryos were bisected to facilitate better probe access. Briefly, whole mount in situ hybridization of digoxigenin-labeled antisense probes was performed overnight, the labelled embryos were then washed, incubated with anti-digoxigenin-AP Fab fragments (Roche 11093274910), and signal was detected using BM-purple (Roche 11442074001). Normal embryonic medium is 1/9× modified Ringer's (MR) containing 11 mM NaCl, 0.2 mM KCl, 0.2 mM CaCl2), 0.1 mM Mg2Cl and 0.55 mM HEPES. […] For extracellular K^+ manipulations, the KCl concentration in 1/9×MR was modified from 0.2 mM (normal) to 20 mM (high) or 0 mM (low). […] For rapamycin, the present study created a standard stock solution of 50 mg/ml in DMSO. The stock solution was diluted 1:2500 in the appropriate embryonic media (final 20 μg/ml). […] In experiments where embryos were evaluated for phenotypes and scored (gastrulation, left-right patterning, in situ hybridizations) the present study carried out three to five biological replicates and Fisher's exact test to evaluate statistical significance. The animal cap experiment was performed twice with a total score of four to eight animal caps per experiment. […] For whole cell electrophysiological recordings, three to five embryos (two cells each) were examined for their membrane potential and statistical significance was tested by student's t-test. Graphs were designed using GraphPad Prism software. Models were created with BioRender.com.

[4] = nifedipine-treated (10 μM) kcnh6 CR embryos
[5] = nifedipine-treated (10 μM) kcnh6 MO embryos

Which results are given for `[Ba+2].[Cl-].[Cl-]` [Barium, Barium chloride]?
embryos with misplacement of organs relative to the left-right axis (defective organ situs) (Xenopus embryos [1]; depolarizing treatment at blastula/gastrula stages, scored at stage 45, ±SEM): 23±2%; embryos that failed to complete gastrulation (Xenopus embryos [2]; depolarizing treatment at blastula/gastrula stages (stage 8-12), barium chloride 20 mM or KCl 20 mM, ±SEM): 37±3%; markers of dorsal (gsc, nodal3) and ventral mesoderm (vent2) (Xenopus embryos [3]; depolarized embryos, stage 10): unaffected; paraxial mesoderm fates (myoD, myf5, tbxt) (Xenopus embryos [3]; depolarized embryos, stage 10): lost

For `COC(=O)C1=C(C)NC(C)=C(C(=O)OC)C1c1ccccc1[N+](=O)[O-]` [nifedipine], which “embryos with absent ectodermin” value (Xenopus embryos [3]; [4]) is on record?
Its value is 16±7%.

And the “embryos with myf5 lost” value (Xenopus embryos [3]; [4])?
The value was 16±1%.

What about the “embryos with absent ectodermin” value (Xenopus embryos [3]; [5]) of the same compound?
Its value is 17±3%.

And the “embryos with myf5 lost” value (Xenopus embryos [3]; [5])?
The value was 18±5%.

Which “gastrulation defect in kcnh6 CR embryos” value (Xenopus embryos [2]; kcnh6 CR embryos treated with valinomycin 2 nM, stage 8-12) does the source give for `CC(C)[C@@H]1NC(=O)[C@H](C)OC(=O)[C@@H](C(C)C)NC(=O)[C@@H](C(C)C)OC(=O)[C@H](C(C)C)NC(=O)[C@H](C)OC(=O)[C@@H](C(C)C)NC(=O)[C@@H](C(C)C)OC(=O)[C@H](C(C)C)NC(=O)[C@H](C)OC(=O)[C@@H](C(C)C)NC(=O)[C@@H](C(C)C)OC1=O` [valinomycin] here?
Its value is 16±7%.

Which results are given for “CR-ex3: CRISPR sgRNA targeting kcnh6 exon 3, SEQ ID NO:2, injected with Cas9 protein (guide GGAATAAGGGGTGAAGACAGCGG; sgRNA injected with Cas9 protein, chemistry not given here; the letters are possibly those of the target site)”?
abnormal organ situs (Xenopus embryos [1]): 43±12%; inability to complete gastrulation (Xenopus embryos [2]): 27±4%

“CR-ex4: CRISPR sgRNA targeting kcnh6 exon 4, SEQ ID NO:3, injected with Cas9 protein (guide AGGGCGCTCTACATTTCCAATGG; sgRNA injected with Cas9 protein, chemistry not given here; the letters are possibly those of the target site)” was tested. Which abnormal organ situs (Xenopus embryos [1]) did it give?
Its abnormal organ situs is 19±1%.

What about the “inability to complete gastrulation” value (Xenopus embryos [2]) of the same compound?
Its value is 29±5%.

For “cacna1c: CRISPR sgRNA for cacna1c (Cav1.2; L-type), SEQ ID NO:4 (guide GCAGACGGGGGCAGCGCCATTGG; sgRNA chemistry not given here; the letters are possibly those of the target site)”, which “expression of ectodermin and myf5 on co-depletion in kcnh6 depleted embryos” value (Xenopus embryos [3]) is on record?
Its value is “rescued expression”.

Which “expression of ectodermin and myf5 on co-depletion in kcnh6 depleted embryos” value (Xenopus embryos [3]) does the source give for “cacna1g: CRISPR sgRNA for cacna1g (Cav3.1; T-type), SEQ ID NO:5 (guide GGTTAATGGCTCTCAGCGGGCGG; sgRNA chemistry not given here; the letters are possibly those of the target site)” here?
Its value is “no rescue”.
